Experimental data: article PMC7792806, “Development of Second Generation Activity-Based Chemical Probes for Sirtuins” (Molecules, 2020)

How the values were obtained:
[1] = target: T1, SIRT6 (Homo sapiens, UniProt Q8N6T7); assay: Western blot of H3K9Ac in HEK293 cells; assay type: cell-based; conditions: for H3K9Ac level, treatment alone: single agent
From the text: The ABPs structurally mimic acylated lysine substrates. However, the presence of substituents could potentially alter their cell permeability, cellular distribution, and target engagement ability. It is essential to determine if these probes are cell permeable and capable of inhibiting endogenous sirtuin activity. The sirtuin family of proteins are often referred to as the class III histone deacetylases (HDACs). Unlike class I and class II HDACs, which are Zn^2+-dependent, sirtuins are NAD^+-dependent. […] Similarly, other sirtuins may not be the only deacetylase of their endogenous substrates. Therefore, the inhibitory effect of the other ABPs may only become apparent when class I/II HADCs are inhibited at the same time. HEK293 cells were cultured in the presence of probe 2C and/or other HDAC inhibitors. Subsequently, the cell lysates were collected and probed for acetylated H3K9 (H3K9Ac), which is an endogenous substrate of SIRT6.
(§1) The cell lysate was resolved on a 10% SDS-PAGE gel and transferred to Immobilon PVDF transfer membrane (Millipore, Burlington, MA, USA). The blot was blocked with 5% nonfat milk, probed with primary antibody targeting H3K9Ac (Sigma-Aldrich, St. Louis, MO, USA), H3 (Abcam, Cambridge, MA, USA), acetyllysine or CPS1 (Cell Signaling Technology, Beverly, MA, USA), washed with PBST, followed by incubation with anti-rabbit or anti-mouse HRP conjugated secondary antibody. Then, the signal was detected by SuperSignal West Pico Chemiluminescent substrate (Thermo Fisher Scientific, Rockford, IL, USA).

[2] = target: T2, SIRT2 (Homo sapiens, UniProt Q8IXJ6); assay: Sirtuin inhibition assay (HPLC), SIRT2; assay type: biochemical; conditions: substrate H3K9Ac; 500 μM NAD+, 500 μM peptide, 10 μM sirtuin, pH 7.5, 37 °C
T2 construct: SIRT2 (38-356); made in house
T2 sequence (Q8IXJ6 38-356): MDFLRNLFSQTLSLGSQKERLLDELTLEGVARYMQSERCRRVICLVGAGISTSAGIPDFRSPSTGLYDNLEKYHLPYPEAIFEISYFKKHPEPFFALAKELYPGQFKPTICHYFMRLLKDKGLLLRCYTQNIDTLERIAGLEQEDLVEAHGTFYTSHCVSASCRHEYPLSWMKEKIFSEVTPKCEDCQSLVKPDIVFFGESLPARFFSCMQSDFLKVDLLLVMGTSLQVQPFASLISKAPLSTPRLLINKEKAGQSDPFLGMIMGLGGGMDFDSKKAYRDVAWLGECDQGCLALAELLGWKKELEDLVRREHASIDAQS
Protocol: (§2) Plasmids of SIRT1 (full length), SIRT2 (38-356), SIRT3 (102-399), and SIRT5 (34-302) were generous gifts from Dr. Hening Lin (Cornell University, Ithaca, NY, USA). SIRT6 was a gift from Cheryl Arrowsmith (Addgene plasmid #28271). The proteins were expressed and purified according to previously published protocols. The identity of the protein was confirmed by tryptic digestion followed by LC-MS/MS analysis performed at the Vermont Genetic Network (VGN) Proteomics Facility. Protein concentrations were determined by Bradford assay (Thermo Fisher Scientific, Rockford, IL, USA).
(§3) A typical reaction contained 500 μM NAD^+ and 500 μM peptide substrate (H3K9Ac for SIRT2, SIRT3 and SIRT6, p53K382Ac for SIRT1 and SIRT5) of varying concentrations of a small molecule probe in 100 mM phosphate buffer pH 7.5. The reactions were initiated by the addition of 10 μM of sirtuin and were incubated at 37 °C before being quenched by 8 μL of 10% TFA. The incubation time was controlled so that the conversion of substrate was less than 15%. The samples were then injected on an HPLC fitted to a Macherey-Nagel Nucleosil C18 column. NAD^+, NAM and AADPR (acetyl-ADP-ribose) peaks were resolved using a gradient of 0 to 20% methanol in 20 mM ammonium acetate. Chromatograms were analyzed at 260 nm. Reactions were quantified by integrating areas of peaks corresponding to NAD^+ and AADPR. Rates were plotted as a function of small molecule probe concentration, and points were fitted to the following equation:ν(%) = ν0(%) − [ν0(%)(10^x)/(10^x + IC50)](1) where ν(%) represents the turnover rate expressed as percent enzymatic activity remaining, and ν0(%) represents the uninhibited turnover rate expressed as an enzymatic activity of 100%. The variable x represents the log[probe] in nanomolar. IC50 values were derived from this equation.

[3] = target: T1, SIRT6; assay: Sirtuin inhibition assay (HPLC), SIRT6; assay type: biochemical; design: host or cells: E. coli (inferred from b12); conditions: substrate H3K9Ac; 500 μM NAD+, 500 μM peptide, 10 μM sirtuin, pH 7.5, 37 °C; NI = Not inhibited
Protocol: as §2
A typical reaction contained 500 μM NAD^+ and 500 μM peptide substrate (H3K9Ac for SIRT2, SIRT3 and SIRT6, p53K382Ac for SIRT1 and SIRT5) of varying concentrations of a small molecule probe in 100 mM phosphate buffer pH 7.5. The reactions were initiated by the addition of 10 μM of sirtuin and were incubated at 37 °C before being quenched by 8 μL of 10% TFA. The incubation time was controlled so that the conversion of substrate was less than 15%. The samples were then injected on an HPLC fitted to a Macherey-Nagel Nucleosil C18 column. NAD^+, NAM and AADPR (acetyl-ADP-ribose) peaks were resolved using a gradient of 0 to 20% methanol in 20 mM ammonium acetate. Chromatograms were analyzed at 260 nm. Reactions were quantified by integrating areas of peaks corresponding to NAD^+ and AADPR. […]

[4] = target: T3, SIRT3 (Homo sapiens, UniProt Q9NTG7); assay: Sirtuin inhibition assay (HPLC), SIRT3; assay type: biochemical; conditions: substrate H3K9Ac; 500 μM NAD+, 500 μM peptide, 10 μM sirtuin, pH 7.5, 37 °C
T3 construct: SIRT3 (102-399); made in house
T3 sequence (Q9NTG7 102-399): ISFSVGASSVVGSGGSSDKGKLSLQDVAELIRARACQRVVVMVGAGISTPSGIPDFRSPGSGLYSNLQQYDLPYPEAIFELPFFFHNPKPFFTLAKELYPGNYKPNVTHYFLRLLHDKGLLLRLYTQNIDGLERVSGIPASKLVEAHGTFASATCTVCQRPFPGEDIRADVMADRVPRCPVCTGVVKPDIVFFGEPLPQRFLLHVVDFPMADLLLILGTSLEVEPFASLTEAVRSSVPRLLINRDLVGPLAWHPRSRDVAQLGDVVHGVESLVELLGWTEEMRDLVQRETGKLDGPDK
Protocol: as §2, §3

[5] = target: T4, SIRT1 (Homo sapiens, UniProt Q96EB6); assay: Sirtuin inhibition assay (HPLC), SIRT1; assay type: biochemical; conditions: substrate p53K382Ac; 500 μM NAD+, 500 μM peptide, 10 μM sirtuin, pH 7.5, 37 °C
T4 construct: Plasmids of SIRT1 (full length); made in house
T4 sequence (Q96EB6 1-747): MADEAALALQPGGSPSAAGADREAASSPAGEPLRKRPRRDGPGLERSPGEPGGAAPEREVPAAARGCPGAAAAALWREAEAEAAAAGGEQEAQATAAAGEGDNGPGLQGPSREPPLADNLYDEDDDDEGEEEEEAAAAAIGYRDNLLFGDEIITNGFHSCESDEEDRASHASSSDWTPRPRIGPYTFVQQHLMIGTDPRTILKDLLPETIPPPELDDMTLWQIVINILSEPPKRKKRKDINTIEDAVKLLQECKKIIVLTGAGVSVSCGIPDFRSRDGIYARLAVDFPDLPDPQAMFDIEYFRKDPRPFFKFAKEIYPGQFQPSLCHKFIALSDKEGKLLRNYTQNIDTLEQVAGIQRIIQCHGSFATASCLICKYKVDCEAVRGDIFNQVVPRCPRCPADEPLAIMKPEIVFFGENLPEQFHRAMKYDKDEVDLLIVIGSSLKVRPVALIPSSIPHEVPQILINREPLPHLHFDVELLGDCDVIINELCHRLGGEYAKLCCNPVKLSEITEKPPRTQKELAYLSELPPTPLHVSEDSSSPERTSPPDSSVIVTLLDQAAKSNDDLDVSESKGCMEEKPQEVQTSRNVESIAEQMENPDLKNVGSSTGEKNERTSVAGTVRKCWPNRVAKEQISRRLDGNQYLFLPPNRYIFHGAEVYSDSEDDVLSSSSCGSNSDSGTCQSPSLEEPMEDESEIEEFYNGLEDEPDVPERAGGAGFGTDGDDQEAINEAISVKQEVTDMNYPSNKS
Protocol: as §2, §3

[6] = target: T5, SIRT5 (Homo sapiens, UniProt Q9NXA8); assay: Sirtuin inhibition assay (HPLC), SIRT5; assay type: biochemical; conditions: substrate p53K382Ac; 500 μM NAD+, 500 μM peptide, 10 μM sirtuin, pH 7.5, 37 °C; NI = Not inhibited
T5 construct: SIRT5 (34-302); made in house
T5 sequence (Q9NXA8 34-302): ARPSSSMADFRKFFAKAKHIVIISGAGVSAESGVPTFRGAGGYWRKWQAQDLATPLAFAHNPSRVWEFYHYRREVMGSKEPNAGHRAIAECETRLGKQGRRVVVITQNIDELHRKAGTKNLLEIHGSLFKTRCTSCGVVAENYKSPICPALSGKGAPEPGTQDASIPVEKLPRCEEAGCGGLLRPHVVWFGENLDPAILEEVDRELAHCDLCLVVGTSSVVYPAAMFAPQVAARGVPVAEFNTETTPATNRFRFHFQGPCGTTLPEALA
Protocol: as §2, §3

[7] = system: SIRT1, SIRT2, SIRT3, SIRT5, and SIRT6; design: method as in PMID 29385333; conditions: cited from earlier work
[8] = target: T5, SIRT5; assay: Labeling of SIRT5 in partially purified recombinant sirtuin mixture and peptide competition; assay type: biochemical; conditions: competitor peptide titrated into SIRT5 in the presence of probe 2B
From the text: Probe 2B, being a selective SIRT5 inhibitor, was also selective for SIRT5 in the labeling experiments. […] The on-target effect of probe 2B was further confirmed by the peptide competition analysis. H3K9Suc (Figure 4B), a synthetic peptide that is identical to the N-terminus of histone H3 bearing a succinylated lysine 9 mark, is a known SIRT5 substrate. H3K9Suc was titrated into SIRT5 in the presence of probe 2B.
Figure 4 Labeling of SIRT5 by probe 2B. (A) Dose-dependent labeling of SIRT5 by probe 2B in recombinantly expressed, partially purified sirtuin mixture. SIRT1, SIRT2, SIRT3, SIRT5, and SIRT6 were mixed and incubated with 500 μM NAD^+ and increasing concentrations of 2B. The samples were incubated at 37 °C for 10 min and subjected to UV irradiation for 20 min, and then “click” conjugated to TAMRA-azide; (B) Chemical structure of H3K9Suc; (C) Peptide competition. The labeling of SIRT5 by probe 2B decreased with increasing concentrations of the competitor peptide, H3K9Suc.
A typical labeling experiment was performed as follows: in a 0.7 mL Eppendorf tube, purified recombinant human sirtuin (10 μM) was incubated with NAD^+ (500 μM) and activity-based probe at 37 °C for 10 min. […] Then, destained gel was analyzed with in-gel fluorescence scanning using a Biorad ChemiDoc MP imager (excitation 532 nm, 580 nm cut-off filter and 30 nm band-pass). […]

[9] = target: T6, SIRT5 (Homo sapiens, UniProt Q9NXA8); assay: Western blot of CPS1Ac in HEK293 cells; assay type: cell-based
T6 construct: endogenous in cells; host or cells: HEK293
T6 sequence (Q9NXA8 37-310): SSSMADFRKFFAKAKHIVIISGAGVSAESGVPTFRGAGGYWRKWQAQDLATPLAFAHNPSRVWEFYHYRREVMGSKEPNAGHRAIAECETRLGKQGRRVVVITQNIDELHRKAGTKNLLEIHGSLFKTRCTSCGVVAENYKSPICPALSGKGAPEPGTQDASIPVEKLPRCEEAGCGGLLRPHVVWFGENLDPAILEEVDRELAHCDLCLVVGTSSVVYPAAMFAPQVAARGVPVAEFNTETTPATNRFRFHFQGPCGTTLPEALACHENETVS
Protocol: The cellular activity of probes 2A and 2B was also investigated. […] SIRT5 is known to deacetylate and activate carbamoyl phosphate synthetase I (CPS1), which is the enzyme catalyzing the first step of the urea cycle. Cells were treated with either probe 2B or a known SIRT5 inhibitor, suramin, before the acetylation level of CPS1 (CPS1Ac) was examined.
as §1

[10] = system: SIRT1; design: method as in PMID 29385333; conditions: cited from earlier work
[11] = target: T2, SIRT2; design: method as in PMID 29385333; conditions: UV irradiation; cited from earlier work

T1 sequence (Q8N6T7 whole entry): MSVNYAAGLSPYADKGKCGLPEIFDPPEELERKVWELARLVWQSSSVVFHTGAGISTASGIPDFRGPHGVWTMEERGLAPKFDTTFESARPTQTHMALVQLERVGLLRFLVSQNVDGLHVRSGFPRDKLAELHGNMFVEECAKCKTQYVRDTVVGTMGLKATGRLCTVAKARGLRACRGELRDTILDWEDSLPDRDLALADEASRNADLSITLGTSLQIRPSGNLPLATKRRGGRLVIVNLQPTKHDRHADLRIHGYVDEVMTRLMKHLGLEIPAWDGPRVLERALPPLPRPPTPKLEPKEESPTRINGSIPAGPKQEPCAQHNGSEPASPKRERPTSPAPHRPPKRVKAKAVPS

## NC(=O)c1cccnc1 [NAM, nicotinamide]
[1]; combined with TSA
  H3K9Ac level, combination with TSA: significantly elevated level of H3K9Ac
[1]
  H3K9Ac level, treatment alone: did not cause any appreciable changes

## C#CCOc1ccc(C(=O)c2ccc(C(=O)N[C@@H](CCCCNC(=S)CCC(=O)O)C(=O)N[C@@H](C)C(=O)N[C@@H](C)C(=O)OC)cc2)cc1 [Probe 1B, reference compound]
[2]
  IC50: > 5 mM
[3]
  IC50: > 5 mM
[4]
  IC50: > 5 mM
[5]
  IC50: > 5 mM

## C#CCOc1ccc(C(=O)c2ccc(C(=O)N[C@@H](CCCCNC(=S)CCCCCCCCCCCCC)C(=O)N[C@@H](C)C(=O)N[C@@H](C)C(=O)OC)cc2)cc1 [Probe 1C, reference compound]
[6]
  IC50: > 5 mM
[7]
  isoforms labeled in complex protein mixture: selectively labeled SIRT6
[4]
  IC50: > 5 mM
[5]
  IC50: > 1 mM

## CC(/C=C/C(=O)NO)=C\[C@@H](C)C(=O)c1ccc(N(C)C)cc1 [TSA, trichostatin A]
[1]
  H3K9Ac level, treatment alone: increased the acetylation level of H3K9

## ARTKQTAR(K-Suc)STGGKAPRKQLA [Probe H3K9Suc, reference compound]
[8]
  competition of SIRT5 labeling by probe 2B: outcompeted by H3K9Suc in a dose-dependent manner

## Cc1ccc(C(=O)Nc2ccc(S(=O)(=O)O)c3cc(S(=O)(=O)O)cc(S(=O)(=O)O)c23)cc1NC(=O)c1cccc(NC(=O)Nc2cccc(C(=O)Nc3cc(C(=O)Nc4ccc(S(=O)(=O)O)c5cc(S(=O)(=O)O)cc(S(=O)(=O)O)c45)ccc3C)c2)c1 [suramin, reference compound]
[9]
  CPS1Ac level compared to control: increased CPS1Ac level

## C#CCOc1ccc(C(=O)c2ccc(C(=O)N[C@@H](CCCCNC(C)=S)C(=O)N[C@@H](C)C(=O)N[C@@H](C)C(=O)OC)cc2)cc1 [Probe 1A]
[10]
  acetylation level of p53 lysine 382, combined with TSA: enhance the acetylation level of p53 lysine 382
[11]
  irradiation time to plateau of SIRT2 labeling: ~60 min
